Measurements: ChEMBL document CHEMBL4316600, “Electrostatic Complementarity as a Fast and Effective Tool to Optimize Binding and Selectivity of Protein-Ligand Complexes” (J Med Chem, 2019)

Target: Dual specificity mitogen-activated protein kinase kinase 1 (Homo sapiens, UniProt Q02750)
Experiment: Inhibition of MEK1 (unknown origin)

Chain of Dual specificity mitogen-activated protein kinase kinase 1 (Q02750 whole entry): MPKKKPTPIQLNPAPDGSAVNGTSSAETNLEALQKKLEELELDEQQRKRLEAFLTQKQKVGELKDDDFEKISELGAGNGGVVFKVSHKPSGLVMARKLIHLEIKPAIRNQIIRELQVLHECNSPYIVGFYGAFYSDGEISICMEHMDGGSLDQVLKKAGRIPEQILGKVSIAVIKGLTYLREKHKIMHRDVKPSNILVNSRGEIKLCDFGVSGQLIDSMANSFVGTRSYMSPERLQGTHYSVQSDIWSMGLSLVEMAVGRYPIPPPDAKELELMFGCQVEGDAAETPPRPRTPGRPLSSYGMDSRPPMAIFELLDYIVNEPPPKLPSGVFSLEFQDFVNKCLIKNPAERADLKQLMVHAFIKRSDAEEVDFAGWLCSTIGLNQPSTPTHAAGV

Structure (SMILES)	IC50 [nM]
O=C(NOCCCO)c1ccc(F)c(F)c1Nc1ccc(F)cc1F	120
O=C(NOCCCO)c1ccc(F)c(F)c1Nc1ccc(Br)cc1F	7.7
O=C(NOCCCO)c1ccc(F)c(F)c1Nc1ccc(I)cc1F	2
O=C(NOCCCO)c1ccc(F)c(F)c1Nc1ccc(Cl)cc1F	26
